The source of these data is PubChem BioAssay AID1259411 (Chemical Carcinogenesis Research Information System (CCRIS), 2018).

In this data set the test system is rodent carcinogenicity bioassays, tumor incidence. As to the kind of experiment: CCRIS carcinogenicity studies. In short, it runs like this: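 NCI-built, expert-reviewed records of carcinogenicity and related test outcomes (mutagenicity, tumor promotion/inhibition) compiled from published and report sources, historical span 1985-2011, not updated.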

Active and inactive are the calls of the source. No rule for the calls is given here.

For the compound `CCOC(=O)N(C)N=O`, the carcinogen call is “active; positive” (Species: MOUSE, Route: INTRAPERITONEAL, Tumor Site: Type of Lesion: LUNG); “active; positive” (Species: MOUSE, Route: ORAL, Tumor Site: Type of Lesion: ESOPHAGUS, FORESTOMACH); “active; positive” (Species: RAT, Route: INTRAVENOUS, Tumor Site: Type of Lesion: LUNG); “active; positive” (Species: RAT, Route: ORAL, Tumor Site: Type of Lesion: FORESTOMACH); “active; positive” (Species: RAT, Strain/Sex: F344/FEMALE, Route: GAVAGE, Dose: 0, 0.35, 1.4 MG/ANIMAL IN CORN OIL 1/WK FOR 20 WK (STUDY DURATION: 114 WK), Dose: 0, 0.35, 1.4 MG/ANIMAL IN CORN OIL 1/WK FOR 20 WK (STUDY DURATION: 114 WK), Tumor Site: Type of Lesion: FORESTOMACH: CARCINOMA, ESOPHAGUS: CARCINOMA, PAPILLOMA); “active; positive” (Species: RAT, Strain/Sex: F344/MALE, Route: ORAL, Dose: 20 PPM IN DRINKING WATER FOR 48 WK (STUDY DURATION: 104 WK), Tumor Site: Type of Lesion: FORESTOMACH: PAPILLOMA, SQUAMOUS CELL CARCINOMA).
Take `O=c1c(-c2ccc(O)cc2)coc2cc(O)cc(O)c12`: the carcinogen call (Species: Rat, Strain/Sex: Sprague-Dawley/Female (50/Group), Route: Oral, Dose: During pregnancy, ingested doses for dams were ~0, 0.5, 9, and 45 mg/kg bw/day. During lactation, ingested doses for dam) was “inactive; negative”; the carcinogen call (Species: Rat, Strain/Sex: Sprague-Dawley/Female (50/Group), Route: Oral, Dose: During pregnancy, ingested doses for dams were ~0, 0.5, 9, and 45 mg/kg bw/day. During lactation, ingested doses for dam, Tumor Site: Type of Lesion: Mammary gland: adenoma and adenocarcinoma combined (13.2%, 16.3%, 22.0%, 26.0%)) was “inactive; negative. positive trend but results do not reach statistical significance (ntp”; the carcinogen call (Species: Rat, Strain/Sex: Sprague-Dawley/Female (50/Group), Route: Oral, Dose: During pregnancy, ingested doses for dams were ~0, 0.5, 9, and 45 mg/kg bw/day. During lactation, ingested doses for dam, Tumor Site: Type of Lesion: Mammary gland: adenoma and adenocarcinoma combined (16.7%, 8.0%, 16.0%, 32.7%) Pituitary gland: neoplasms (70.4%, 80.0%) is “inactive; positive but at 2 lower doses, there was a negative trend for the mammary tumors”; the carcinogen call (Species: Rat, Strain/Sex: Sprague-Dawley/Female (50/Group), Route: Oral, Dose: During pregnancy, ingested doses for dams were ~0, 0.5, 9, and 45 mg/kg bw/day. During lactation, ingested doses for dam, Tumor Site: Type of Lesion: Pituitary gland: adenoma and carcinoma combined (Overall rate 70.4%, 65.3%, 80.0%, 88.0%)) is “inactive; negative (ntp describes as equivocal)”; the carcinogen call (Species: Rat, Strain/Sex: Sprague-Dawley/Male (50/Group), Route: Oral, Dose: During pregnancy, ingested doses for dams were ~0, 0.5, 9, and 45 mg/kg bw/day. During lactation, ingested doses for dam) was “inactive; negative”.
As to `O=C1OC2(c3ccccc31)c1ccc(O)c(Br)c1Oc1c2ccc(O)c1Br`, the carcinogen call is, setting by setting: (Species: MOUSE, Strain/Sex: ICR/FEMALE, Route: DERMAL, Dose: 0, 1 MG IN 0.1 ML DISTILLED WATER 2/WK FOR A MEAN TOTAL DOSE OF 136.5 MG (STUDY DURATION: 18 MO)) “inactive; negative”; (Species: MOUSE, Strain/Sex: ICR/MALE, Route: DERMAL, Dose: 0, 1 MG IN 0.1 ML DISTILLED WATER 2/WK FOR A MEAN TOTAL DOSE OF 136.5 MG (STUDY DURATION: 18 MO)) “inactive; negative”.
As to `CCCCN(C)N=O`, the carcinogen call is “active; positive” (Species: HAMSTER, Strain/Sex: SYRIAN/FEMALE, Route: GAVAGE, Dose: 0, 2.5, 5 MG/KG 1/WK FOR 23-30 WK (TOTAL DOSE: 0; 0.65; 1.0 MMOL) (STUDY DURATION: LIFETIME), Dose: 0, 2.5, 5 MG/KG 1/WK FOR 23-30 WK (TOTAL DOSE: 0; 0.65; 1.0 MMOL) (STUDY DURATION: LIFETIME), Tumor Site: Type of Lesion: LIVER: HEPATOCELLULAR ADENOMA, LUNG: ALVEOLAR/BRONCHIAL ADENOMA, NASAL MUCOSA: CARCINOMA, ADENOMA, FORESTOMACH: SQUAMOUS, Tumor Site: Type of Lesion: LIVER: HEPATOCELLULAR ADENOMA, LUNG: ALVEOLAR/BRONCHIAL ADENOMA, NASAL MUCOSA: CARCINOMA, ADENOMA, FORESTOMACH: SQUAMOUS); “active; positive” (Species: HAMSTER, Strain/Sex: SYRIAN/MALE, Route: GAVAGE, Dose: 0, 2.5, 5 MG/KG 1/WK FOR 23-30 WK (TOTAL DOSE: 0; 0.65; 1.0 MMOL) (STUDY DURATION: LIFETIME), Dose: 0, 2.5, 5 MG/KG 1/WK FOR 23-30 WK (TOTAL DOSE: 0; 0.65; 1.0 MMOL) (STUDY DURATION: LIFETIME), Tumor Site: Type of Lesion: LIVER: HEPATOCELLULAR ADENOMA, HEMANGIOSARCOMA, LUNG: ALVEOLAR/BRONCHIAL ADENOMA, NASAL MUCOSA: CARCINOMA, ADENOMA, FORE, Tumor Site: Type of Lesion: LIVER: HEPATOCELLULAR ADENOMA, HEMANGIOSARCOMA, LUNG: ALVEOLAR/BRONCHIAL ADENOMA, NASAL MUCOSA: CARCINOMA, ADENOMA, FORE); “active; positive” (Species: RAT, Strain/Sex: F344/FEMALE, Route: INTRAVESICULAR, Dose: 0, 3 MG IN 0.2 ML ETHANOL: DEIONIZED WATER (1:3) 2/WK FOR 17 WK (TOTAL DOSE 0.9 MMOL) (STUDY DURATION: LIFESPAN), Tumor Site: Type of Lesion: ESOPHAGUS: TUMOR, LIVER: HEMANGIOSARCOMA).
Consider `Nc1ccc(Sc2ccc(N)cc2)cc1`, for which the carcinogen call reads like this: (Species: MOUSE, Strain/Sex: B6C3F1/FEMALE, Route: ORAL, Dose: 0, 2500, 5000 PPM IN DIET, Dose: 0, 2500, 5000 PPM IN DIET, Tumor Site: Type of Lesion: LIVER: HEPATOCELLULAR CARCINOMA, THYROID GLAND: FOLLICULAR CELL ADENOMA OR CARCINOMA) “active; positive”; (Species: MOUSE, Strain/Sex: B6C3F1/MALE, Route: ORAL, Dose: 0, 2500, 5000 PPM IN DIET, Dose: 0, 2500, 5000 PPM IN DIET, Tumor Site: Type of Lesion: LIVER: HEPATOCELLULAR ADENOMA OR CARCINOMA, THYROID GLAND: FOLLICULAR CELL ADENOMA OR CARCINOMA) “active; positive”; (Species: RAT, Strain/Sex: F344/FEMALE, Route: ORAL, Dose: 0, 1500, 3000 PPM IN DIET, Dose: 0, 1500, 3000 PPM IN DIET, Tumor Site: Type of Lesion: THYROID GLAND: FOLLICULAR CELL CARCINOMA, UTERUS: ADENOCARCINOMA, NOS) “active; positive”; (Species: RAT, Strain/Sex: F344/MALE, Route: ORAL, Dose: 0, 1500, 3000 PPM IN DIET (68-72 WEEKS), Dose: 0, 1500, 3000 PPM IN DIET (68-72 WEEKS), Tumor Site: Type of Lesion: LIVER: HEPATOCELLULAR ADENOMA OR CARCINOMA, COLON: ADENOCARCINOMA, NOS, THYROID GLAND: FOLLICULAR CELL ADENOMA OR CARCIN, Tumor Site: Type of Lesion: LIVER: HEPATOCELLULAR ADENOMA OR CARCINOMA, COLON: ADENOCARCINOMA, NOS, THYROID GLAND: FOLLICULAR CELL ADENOMA OR CARCIN) “active; positive”.
Turning to `OCC(CO)NC1CC(O)(CO)C(O)C(O)C1O` (configuration not stated), the carcinogen call (Species: MOUSE, Strain/Sex: CD-1/FEMALE, Route: GAVAGE, Dose: 0, 15, 50, 150 MG/KG/D IN DISTILLED WATER (STUDY DURATION: 105 WK), Dose: 0, 15, 50, 150 MG/KG/D IN DISTILLED WATER (STUDY DURATION: 105 WK)) is “inactive; negative”; the carcinogen call (Species: MOUSE, Strain/Sex: CD-1/MALE, Route: GAVAGE, Dose: 0, 15, 50, 150 MG/KG/D IN DISTILLED WATER (STUDY DURATION: 105 WK), Dose: 0, 15, 50, 150 MG/KG/D IN DISTILLED WATER (STUDY DURATION: 105 WK)) was “inactive; negative”; the carcinogen call (Species: RAT, Strain/Sex: F344/FEMALE, Route: GAVAGE, Dose: 0, 3, 10, 30 MG/KG/D IN DISTILLED WATER FOR 24 MO (STUDY DURATION: 110 WK), Dose: 0, 3, 10, 30 MG/KG/D IN DISTILLED WATER FOR 24 MO (STUDY DURATION: 110 WK)) is “inactive; negative”; the carcinogen call (Species: RAT, Strain/Sex: F344/MALE, Route: GAVAGE, Dose: 0, 3, 10, 30 MG/KG/D IN DISTILLED WATER FOR 24 MO (STUDY DURATION: 110 WK), Dose: 0, 3, 10, 30 MG/KG/D IN DISTILLED WATER FOR 24 MO (STUDY DURATION: 110 WK)) was “inactive; negative”.
Take `C=CC(=O)O`: the carcinogen call (Species: MOUSE, Strain/Sex: C3H/MALE, Route: DERMAL, Dose: 0, 0.20 MG IN 25 µL ACETONE 3/WK FOR LIFESPAN (STUDY DURATION: LIFESPAN)) was “inactive; negative”; the carcinogen call (Species: RAT, Strain/Sex: WISTAR/FEMALE, Route: ORAL, Dose: 0, 120, 400, 1200 PPM IN DRINKING WATER FOR 28 MO (STUDY DURATION: 28 MO), Dose: 0, 120, 400, 1200 PPM IN DRINKING WATER FOR 28 MO (STUDY DURATION: 28 MO)) is “inactive; negative”; the carcinogen call (Species: RAT, Strain/Sex: WISTAR/MALE, Route: ORAL, Dose: 0, 120, 400, 1200 PPM IN DRINKING WATER FOR 26 MO (STUDY DURATION: 26 MO), Dose: 0, 120, 400, 1200 PPM IN DRINKING WATER FOR 26 MO (STUDY DURATION: 26 MO)) was “inactive; negative”.
